These results are taken from PubChem BioAssay AID1996.

SMILES strings stand for the structures. ≈ marks a conversion by molar mass, not a printed value.

The conditions of this data set: buffer; pH 7.4; 200.0 µM.
`CCCN1CCN(C(=O)c2ccc3nc(CC)c(CC)nc3c2)CC1` came in with a kinetic solubility of over 51.1 µg/mL. Next, `CC(=O)Nc1ccc2nc(NC(=O)c3ccco3)sc2c1`: 4.9 µg/mL (≈ 16.3 µM); `CC1(C(=O)NCc2ccc(F)cc2)Oc2ccccc2NC1=O` (stereo unspecified): over 47.1 µg/mL.

On to `COc1cc(NC(=S)N(C)C)c(OC)cc1Cl`, for which the kinetic solubility is over 41.2 µg/mL. As for `O=C(COc1ccccc1)Nc1ccncc1Cl`, the figure is 32.3 µg/mL (≈ 123 µM). For `CC(C)(C)c1cc(/C=C2\NC(=O)NC2=O)cc(C(C)(C)C)c1O`, the kinetic solubility worked out at 6.6 µg/mL (≈ 20.9 µM). As for `Cn1c(=O)n(C)c2cc(S(=O)(=O)N3CCCCC3)ccc21`, the figure is over 46.4 µg/mL; as for `FC(F)(F)c1cccc(NC(=S)Nc2ccc(Cl)c(Cl)c2)c1`, 1.5 µg/mL (≈ 4.11 µM). As for `Cc1ccc2nc(-c3ccc(NC(=O)COCC(=O)O)cc3)sc2c1`, the figure is over 53.5 µg/mL; as for `COc1ccc(C(=O)COC(=O)CNC(=O)c2ccc(OC)cc2)cc1`, 17.3 µg/mL (≈ 48.4 µM). Next, `COc1ccc(/C=N/S(=O)(=O)c2ccc(C)cc2)cc1`: 41 µg/mL (≈ 142 µM); `O=C(O)CC[C@@H](C(=O)O)N1C(=O)c2ccccc2C1=O`: over 41.6 µg/mL. `CCN(c1ccccc1)S(=O)(=O)c1ccc2ccccc2c1` returned a solubility (kinetic) of 4.9 µg/mL (≈ 15.7 µM). With `CS(=O)(=O)c1ccc(Cl)c(NC(=O)CN2CCN(C(=O)c3cccs3)CC2)c1`, the kinetic solubility was over 66.3 µg/mL.

Compound `Cc1ccc(N2CCN(C(=O)c3cccs3)CC2)c(C)c1` returned a kinetic solubility of 2.3 µg/mL (≈ 7.66 µM).

`Cc1cc(C)n2cc(CSc3ccc(Cl)cc3)nc2n1` displayed a kinetic solubility of over 45.6 µg/mL.

As for `Cc1sc2c3ccsc3ccc2[n+]1C.[I-]`, the solubility (kinetic) came to 36.3 µg/mL. Next, `CC(=O)NC(=S)Nc1ccc([N+](=O)[O-])cc1C`: 3.5 µg/mL (≈ 13.8 µM). Next, `COc1ccc(-c2nc3ccccc3nc2-c2ccccc2)cc1OC`: 11 µg/mL (≈ 32.1 µM).

For `Cc1c(Cl)cccc1NC(=O)c1cccnc1`, the solubility (kinetic) is over 37 µg/mL. On to `CCOC(=O)c1c(C)[nH]c(C)c1C(=O)COC(=O)CCc1ccccc1`, for which the solubility (kinetic) is over 53.6 µg/mL. As for `COc1ccccc1C(=O)NCCC(=O)Nc1ccc(C)cn1`, the figure is 43.7 µg/mL (≈ 139 µM); as for `CCCn1c2ccccc2c2cnn(CC(=O)N(CC)CC)c(=O)c21`, over 51.1 µg/mL.

Compound `Cc1cc(C)c(NC(=O)CSCc2c(C)noc2C)c(C)c1` showed a solubility (kinetic) of 28.1 µg/mL (≈ 88.2 µM).

`Cc1nc(-c2noc(-c3ccccc3Cl)n2)c(C(F)(F)F)o1`: the solubility (kinetic) was 0.6 µg/mL (≈ 1.82 µM). This solubility kinetic lies about 47-fold lower than the previous one. As for `Cc1nnc(NC(=O)CSc2nnc(C)c(=O)n2N)s1`, the figure is over 47 µg/mL; as for `O=C(/C=C/c1ccc2c(c1)OCO2)N1CCCCC1`, over 38.9 µg/mL; as for `O=C(COC(=O)c1cccc(OC(F)F)c1)Nc1ncccn1`, 30.2 µg/mL (≈ 93.4 µM).

The compound `Cc1ccc(S(=O)(=O)N2CC3CCCC2C3)cc1` (stereo unspecified) gave a kinetic solubility of 34.9 µg/mL (≈ 132 µM). The compound `COc1ccc(CCNC(=O)CN2C(=O)NC3(CCCCC3)C2=O)cc1` came in with a solubility (kinetic) of over 53.9 µg/mL. Next, `Cc1c(Cl)cccc1NC(=O)CC1Oc2ccccc2NC1=O` (stereo unspecified): 5.7 µg/mL (≈ 17.2 µM); `O=C(COC(=O)C1=COCCO1)Nc1ccc(F)c(F)c1`: 4.6 µg/mL (≈ 15.4 µM); `O=C1CSCC(=O)N1c1ncc(C(F)(F)F)cc1Cl`: 42 µg/mL (≈ 135 µM). Regarding `O=C(CSc1nc2ccccc2c(=O)n1CCCN1CCOCC1)NCCc1ccccc1`, the solubility (kinetic) was 64.3 µg/mL (≈ 138 µM). In turn, `Cc1ccc(Cl)c(NC(=O)COC(=O)c2cc[n+]([O-])cc2)c1Cl` yielded a kinetic solubility of over 53.3 µg/mL. As for `CC(C)NC(=O)c1ccc(CN2CCC(Cc3ccccc3)CC2)cc1`, the figure is 47.3 µg/mL (≈ 135 µM).

In the case of `CC(=O)c1c(C)oc2ccc(NS(=O)(=O)c3ccc(C)cc3)cc12`, the solubility (kinetic) was under 0.7 µg/mL.

In turn, `CC1CCN(C(=O)CN(Cc2ccc(F)cc2)S(C)(=O)=O)CC1` displayed a kinetic solubility of over 51.4 µg/mL.

Regarding `O=[N+]([O-])c1ccc(Oc2cccc3cccnc23)c(Cl)c1`, the kinetic solubility turned out to be 14.1 µg/mL (≈ 46.9 µM).

Regarding `COc1cc(SC)ccc1C(=O)Nc1ccc(C)cc1`, the kinetic solubility was 1.6 µg/mL (≈ 5.57 µM). As for `CN1CCCN(C(=O)COc2ccccc2)CC1`, the figure is over 37.2 µg/mL; as for `O=C(Nc1cccc(S(=O)(=O)NCc2ccco2)c1)c1cccc(Cl)c1`, 2.5 µg/mL (≈ 6.4 µM); as for `CCCNC(=O)N1CCCC(C(N)=O)C1` (stereo unspecified), over 32 µg/mL.

Compound `CC(C(=O)Nc1ccc(OCc2ccccc2)cc1)N1CCCC1` (stereo unspecified) registered a kinetic solubility of over 48.7 µg/mL. As for `Cc1ccc(C(=O)NCC(C)NC(=O)c2ccc(C)c([N+](=O)[O-])c2)cc1[N+](=O)[O-]` (stereo unspecified), the figure is 1.8 µg/mL (≈ 4.5 µM); as for `S=C(Nc1ccc(Cl)cc1Cl)N1CCN(c2ccccn2)CC1`, 1 µg/mL (≈ 2.72 µM); as for `C#CCn1c(C)cc(C)c(S(=O)(=O)c2ccccc2)c1=O`, over 45.2 µg/mL.

The compound `O=C(O)CNC(=O)c1ccc(N2CCOCC2)cc1[N+](=O)[O-]` showed a kinetic solubility of over 46.4 µg/mL. As for `COC(=O)c1[nH]c2ccccc2c1CN1CCOCC1`, the figure is over 41.1 µg/mL; as for `CCNC(=S)NC1CC2CCCC(C1)N2Cc1ccc(C)cc1` (stereo unspecified), 47.7 µg/mL (≈ 144 µM). Next, `O=C(Cn1cnc2ccccc2c1=O)N1CCc2ccccc2C1`: over 47.9 µg/mL.

Usually solubility (kinetic) stands for solubility judged after dilution from a stock solution rather than from solid.
